Structures can show the parent of a compound that is named as a salt.
Assays:
[1] = Local tolerability of intranasal aqueous solution; type: in vivo; conditions: 45.00 mg/mL, pH 4.8
Protocol: The proposed formulations are calculated for a single puff of 50 µL/nostril.

[2] = pH of the tizanidine hydrochloride solutions; type: physicochemical; conditions: Tizanidine.HCl aqueous solutions, no excipients
[3] = Preliminary pharmacokinetics of tizanidine solutions in rabbits (IN, IM, PO); type: in vivo; conditions: 3.00 mg/kg of tizanidine hydrochloride
Protocol: Preliminary pharmacokinetic data in rabbits at the dose of 3.00 mg/kg of tizanidine hydrochloride by intranasal (IN), intramuscular (IM), and oral route (PO) were performed to test the intranasal absorption without any enhancer.

[4] = animal data, local administration; cited from earlier work
[5] = cited from earlier work

Compound | tolerability by the nasal mucosa (redness or pain) [1] | pH [2] | bioavailability ([3]; intranasal (IN) compared with intramuscular (IM)) | intranasal absorption ([3]; intranasal (IN), without any enhancer) | activity compared with clonidine [4] | absorption by oral route ([5]; extensive first-pass effect) | T1/2z ([5]; oral route) [h] | Tmax ([5]; oral route) [h]
Clc1ccc2nsnc2c1NC1=NCCN1 [Tizanidine.HCl] | tolerated by the nasal mucosa without any local side effect | 4.8 |  |  |  |  |  | 
Clc1ccc2nsnc2c1NC1=NCCN1 [Tizanidine, 5-chloro-N-(4,5-dihydro-1H-imidazol-2-yl)-2,1,3-benzothia-diazol-4-amine] |  |  | close to that of intramuscular route (IM) | rapidly absorbed | equivalent activity | well and rapidly absorbed | 1 to 2 | 1 to 2

Source: patent EP2338473A1, “Pharmaceutical dosage forms of tizanidine and administration routes thereof” (MDM S.p.A., priority 2009, dated 2011)
